Molecules are shown by their SMILES. “And” between values parts separate entries of the source, which are not always exact repeats. Equal entries are not always repeated.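 In this assay, cells in 96-well plates receive the compound at five concentrations for 48 hours. Endpoints are linearly interpolated between the surrounding concentrations. At the GI50, growth is halved. Definition used: TGI = concentration required for complete inhibition of growth.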 Where a SMILES comes first, the peptide text is derived from it. The star is where a group is joined. Boc = CC(C)(C)OC(=O)*; OBn = c1ccc(CO*)cc1; Bn = c1ccc(C*)cc1

Test systems include SW-620 colon; OVCAR-5 ovarian; NCI-H522 lung; OVCAR-8 ovarian; TK-10 renal; SF-295 CNS; IGROV1 ovarian; OVCAR-3 ovarian; SK-MEL-28 melanoma; M14 melanoma; HCT-15 colon; HOP-92 NSCLC.
Common to all, as to assay: growth of human tumour cells (NCI), 48 h

Regarding `COCOc1cc(OC)ccc1C=O`, the TGI in the test with SW-620 colon, with OVCAR-5 ovarian, in the test with NCI-H522 lung, in the test on OVCAR-8 ovarian, in the test with TK-10 renal and with SF-295 CNS was greater than 100 µM throughout. In addition, the TGI was greater than 100 µM with IGROV1 ovarian; 63.8 µM in the test on OVCAR-3 ovarian; greater than 100 µM in the test on SK-MEL-28 melanoma; greater than 100 µM with M14 melanoma; greater than 100 µM with HCT-15 colon.
As for `O=Cc1cc(O)c(O)c(O)c1-c1c(C=O)cc(O)c(O)c1O`, the TGI in the test with SW-620 colon, with OVCAR-5 ovarian, in the test on NCI-H522 lung, in the test on OVCAR-8 ovarian, in the test with TK-10 renal and in the test on SF-295 CNS was greater than 100 µM in each case. Besides, the TGI in the test on IGROV1 ovarian, with OVCAR-3 ovarian, in the test with SK-MEL-28 melanoma, with M14 melanoma and in the test on HCT-15 colon was greater than 100 µM throughout.
As to `O=c1[nH]c2ccc(CC(=S)N3CCN(c4ccccc4)CC3)cc2s1`, the TGI was greater than 100 µM in the test with SW-620 colon; 84.5 µM with OVCAR-5 ovarian; 82 µM in the test on OVCAR-8 ovarian; greater than 100 µM in the test on TK-10 renal; greater than 100 µM in the test with SF-295 CNS; greater than 100 µM in the test on IGROV1 ovarian. Also, the TGI in the test on OVCAR-3 ovarian, with SK-MEL-28 melanoma, in the test with M14 melanoma and in the test with HCT-15 colon was greater than 100 µM in each case.
For the molecule `CC1OC(OP(=O)(OCc2ccccc2)OCc2ccccc2)C(OC(=O)c2ccccc2)C(OC(=O)c2ccccc2)C1I` (stereo not given), the TGI with SW-620 colon is greater than 100 µM; in the test with OVCAR-5 ovarian, greater than 100 µM; with NCI-H522 lung, 88.2 µM; in the test on OVCAR-8 ovarian, greater than 100 µM; in the test with TK-10 renal, greater than 100 µM; with SF-295 CNS, greater than 100 µM. Moreover, the TGI with IGROV1 ovarian, with OVCAR-3 ovarian, in the test on SK-MEL-28 melanoma, with M14 melanoma and with HCT-15 colon was greater than 100 µM throughout.
For `CCC1OC2C(CC=C(C)C)=C3OC(C)(O)C(C)(CC)C(O)C3=C3OC(=O)C=C1C32` (stereo not given), the TGI in the test with SW-620 colon was greater than 100 µM; in the test on OVCAR-5 ovarian, greater than 100 µM; with TK-10 renal, greater than 100 µM; in the test on SF-295 CNS, greater than 100 µM; with HOP-92 NSCLC, 54.9 µM; in the test with SK-MEL-28 melanoma, greater than 100 µM. Further, the TGI in the test with M14 melanoma and in the test on HCT-15 colon was greater than 100 µM in each case.
`COc1ccc(NS(=O)C2CCCCC2)cc1` (stereo not given): the TGI with SW-620 colon, in the test with OVCAR-5 ovarian, with NCI-H522 lung, in the test with OVCAR-8 ovarian, in the test with TK-10 renal and in the test on SF-295 CNS was greater than 100 µM in each case. In addition, the TGI in the test with IGROV1 ovarian, in the test on OVCAR-3 ovarian, with SK-MEL-28 melanoma, in the test with M14 melanoma and in the test with HCT-15 colon was greater than 100 µM in each case.
Consider `Cc1cc2nc3c(C#N)c(-c4ccccc4)/c(=C\Nc4cccc(C(F)(F)F)c4)c(=O)n3c2cc1C`, for which the TGI is greater than 100 µM in the test on SW-620 colon; greater than 100 µM with OVCAR-5 ovarian; 93.7 µM in the test on NCI-H522 lung; greater than 100 µM in the test on OVCAR-8 ovarian; greater than 100 µM in the test on TK-10 renal; greater than 100 µM with SF-295 CNS. Besides, the TGI in the test on OVCAR-3 ovarian is 54.4 µM; in the test with SK-MEL-28 melanoma, greater than 100 µM; in the test with M14 melanoma it was greater than 100 µM; in the test on HCT-15 colon, greater than 100 µM.
`N#Cc1nn(-c2ccc(Cl)cc2)c(N)c2c(=N)n3nc(-c4ccccc4)cc3nc12`: the TGI was greater than 100 µM in the test with SW-620 colon; greater than 100 µM in the test with NCI-H522 lung; greater than 100 µM in the test with OVCAR-8 ovarian; greater than 100 µM with TK-10 renal; greater than 24.5 µM in the test with SF-295 CNS; greater than 32 µM in the test with IGROV1 ovarian. Moreover, the values for the TGI in the test on OVCAR-3 ovarian, in the test on M14 melanoma and with HCT-15 colon were greater than 35.5 µM, greater than 100 µM and greater than 100 µM, respectively. The GI50 in the test on NCI-H522 lung was 36.4 µM.
Consider `COc1ccc2cc(C(=O)NCCc3ccccc3)ccc2c1OC`, for which the TGI with SW-620 colon, in the test with OVCAR-5 ovarian, in the test on OVCAR-8 ovarian, with SF-295 CNS, in the test on IGROV1 ovarian and in the test with OVCAR-3 ovarian was greater than 100 µM in each case. Moreover, the TGI in the test on HOP-92 NSCLC, with SK-MEL-28 melanoma, with M14 melanoma and with HCT-15 colon was greater than 100 µM each time.
As to `CC(=O)c1nc2ccccc2n1CC(=O)c1ccc([N+](=O)[O-])cc1`, the TGI was 41.6 µM in the test on SW-620 colon; 15.7 µM in the test on NCI-H522 lung; 21 µM in the test on OVCAR-8 ovarian; greater than 100 µM in the test on TK-10 renal; 36.1 µM in the test on SF-295 CNS; 14.5 µM in the test with IGROV1 ovarian. Besides, the TGI in the test on OVCAR-3 ovarian was 35.4 µM; in the test on SK-MEL-28 melanoma, greater than 100 µM; in the test on M14 melanoma, greater than 100 µM; with HCT-15 colon, greater than 100 µM.
`CC(=O)OCC1OC(n2c(-c3ccccc3)c(N=Nc3ccc(Cl)cc3)c(C)c(C#N)c2=S)C(OC(C)=O)C(OC(C)=O)C1OC(C)=O` (stereo not given): the TGI with SW-620 colon is 34.6 µM and > 100 µM; with OVCAR-5 ovarian, 30.6 µM and > 100 µM; with TK-10 renal it was greater than 100 µM; with SF-295 CNS, greater than 100 µM; in the test on IGROV1 ovarian, greater than 100 µM; with OVCAR-3 ovarian it was 52.5 µM and > 100 µM. Besides, the TGI in the test with SK-MEL-28 melanoma is 16.9 µM and > 100 µM; in the test on M14 melanoma it was 32.4 µM and > 100 µM; with HCT-15 colon, 29.1 µM and > 100 µM. Besides, the GI50 in the test with OVCAR-5 ovarian was 15.7 µM and > 100 µM; in the test on SF-295 CNS, 25.2 µM and 56.7 µM; with IGROV1 ovarian, 7.17 µM and 29.9 µM; in the test with OVCAR-3 ovarian it was 4.77 µM and 39.8 µM; in the test with SK-MEL-28 melanoma, 4.58 µM and 30.3 µM; in the test on M14 melanoma, 9.33 µM and 71.1 µM. Besides, the GI50 with HCT-15 colon is 7.59 µM and 59.8 µM.
Regarding `Fc1ccc(C(=NCc2ccccc2)N2CCOCC2)cc1`, the TGI in the test with SW-620 colon, in the test with OVCAR-5 ovarian, in the test with OVCAR-8 ovarian, with TK-10 renal, in the test with SF-295 CNS and with IGROV1 ovarian was greater than 100 µM in each case. For the same molecule, the TGI with OVCAR-3 ovarian, in the test with SK-MEL-28 melanoma, in the test with M14 melanoma and with HCT-15 colon was greater than 100 µM in each case.
For `CC1OC(OC2C(CO)OC(O[C@H]3CC[C@@]4(C)C(=CC[C@H]5[C@@H]6C[C@@H]7O[C@](O)(CC[C@@H](C)COC8OC(CO)C(O)C(O)C8O)[C@@H](C)[C@@H]7[C@@]6(C)CC[C@@H]54)C3)C(OC3OC(C)C(O)C(O)C3O)C2O)C(O)C(O)C1O` (stereo not given in full), the TGI with SW-620 colon was 2.97 µM; with OVCAR-5 ovarian, 6.76 µM; in the test with NCI-H522 lung it was 4.41 µM; in the test on OVCAR-8 ovarian, 4.09 µM; with TK-10 renal, 22.8 µM; with SF-295 CNS, 11.8 µM. The TGI came to 29.8 µM with OVCAR-3 ovarian, 7.55 µM in the test with SK-MEL-28 melanoma, 4.69 µM with M14 melanoma and 3.91 µM in the test on HCT-15 colon. In addition, the GI50 in the test on M14 melanoma is 2.24 µM.
In the case of `Cc1cccc(Nc2cn(CCOc3ccccc3)c(=O)[nH]c2=O)c1`, the TGI in the test on SW-620 colon is greater than 100 µM; with OVCAR-5 ovarian it was greater than 100 µM; with SF-295 CNS it was greater than 100 µM; in the test on IGROV1 ovarian it was 54.9 µM; in the test on OVCAR-3 ovarian it was 52.8 µM; in the test with HOP-92 NSCLC, 84 µM. The TGI with SK-MEL-28 melanoma, in the test with M14 melanoma and in the test with HCT-15 colon was greater than 100 µM each time.
Consider `CC(C)(C)NCC(O)COc1cccc2[nH]c(C#N)cc12` (stereo not given), for which the TGI in the test with SW-620 colon, with OVCAR-5 ovarian, in the test on NCI-H522 lung, with OVCAR-8 ovarian, in the test with TK-10 renal and in the test with SF-295 CNS was greater than 100 µM in each case. Also, the TGI with IGROV1 ovarian, with OVCAR-3 ovarian, with SK-MEL-28 melanoma, in the test with M14 melanoma and in the test with HCT-15 colon was greater than 100 µM throughout.
`C[C@H](NC(=O)OC1C2C=CC(O)C1CC2)c1ccccc1` (stereo not given in full): the TGI in the test with OVCAR-5 ovarian, with NCI-H522 lung, with OVCAR-8 ovarian, in the test on TK-10 renal, in the test on SF-295 CNS and in the test with IGROV1 ovarian was greater than 100 µM throughout. For the same molecule, the TGI with OVCAR-3 ovarian was greater than 100 µM; in the test with SK-MEL-28 melanoma, greater than 100 µM; with M14 melanoma, greater than 100 µM; in the test with HCT-15 colon, 33.6 µM.
For the molecule `CC(C)CC(NC(=O)C(Cc1ccccc1)NC(=O)C(COCc1ccccc1)NC(=O)OC(C)(C)C)C(=O)OCc1ccccc1` (stereo not drawn) (Boc-Ser(Bn)-Phe-Leu-OBn; configuration not given here), the TGI was 56.7 µM in the test with SW-620 colon; greater than 100 µM in the test on OVCAR-5 ovarian; 31.9 µM in the test with NCI-H522 lung; 34.6 µM with OVCAR-8 ovarian; greater than 100 µM in the test with TK-10 renal; 51.1 µM in the test with SF-295 CNS. The TGI was 31.8 µM in the test on IGROV1 ovarian; greater than 100 µM in the test with OVCAR-3 ovarian; 42 µM in the test on SK-MEL-28 melanoma; greater than 100 µM with M14 melanoma; 76 µM with HCT-15 colon.
With `CC(=O)NC1C(OCC(=O)NC(C)C(=O)NC(CCC(=O)NCCCCCNc2ccc([N+](=O)[O-])c3[nH]c4ccccc4c(=O)c23)C(N)=O)C(O)C(CO)OC1(C)OCc1ccccc1` (stereo not given), the TGI with SW-620 colon, in the test on OVCAR-5 ovarian, with NCI-H522 lung, in the test on OVCAR-8 ovarian, in the test on TK-10 renal and with SF-295 CNS was greater than 50 µM each time. The TGI with IGROV1 ovarian, in the test on OVCAR-3 ovarian, with M14 melanoma and with HCT-15 colon was greater than 50 µM each time.
